Results from EPA's ToxRefDB 2.

How the values were obtained:
rat [1] = details: Sub-acute repeat dose toxicity, sprague dawley, Oral, Gavage/Intubation, dose end: 7 day, group: systemic
primate [2] = details: Sub-acute repeat dose toxicity, Oral, Gavage/Intubation, dose end: 5 day, group: systemic
rat [3] = details: Sub-acute repeat dose toxicity, sprague dawley, Oral, Gavage/Intubation, dose end: 29 day, group: systemic
primate [4] = details: Sub-acute repeat dose toxicity; Oral; Gavage/Intubation; dose end: 28 day; group: systemic; systemic / clinical chemistry / cholesterol / cholesterol, direct ldl + systemic / hematology / erythrocyte (rbc) count differential / …
mouse = details: Carcinogenicity, other, Oral, Feed, dose end: 18 month, group: systemic
dog [5] = details: Subchronic oral toxicity in nonrodent, beagle, Capsule, dose end: 26 week, group: systemic, systemic / in life observation / body weight / body weight gain
rat [6] = details: Combined chronic toxicity/carcinogenicity; sprague dawley; Oral; Feed; dose end: 104 week; group: systemic; systemic / clinical chemistry / alanine aminotransferase (alt/sgpt) / alanine aminotransferase (alt/sgpt) + systemic / clinical chemistry / …
rabbit = details: Prenatal developmental toxicity study, other, Oral, Gavage/Intubation, dose end: 19 GD
dog [7] = details: Chronic toxicity, beagle, Oral, Capsule, dose end: 52 week, group: systemic
rat [8] = details: Subchronic oral toxicity in rodents, other, Feed, dose end: 91 day
[9] = systemic / clinical chemistry / aspartate aminotransferase (ast/sgot) / aspartate aminotransferase (ast/sgot) + systemic / clinical …
[10] = systemic / clinical chemistry / gamma glutamyl transferase (ggt) / gamma glutamyl transferase (ggt) + systemic / pathology microscopic / …
[11] = systemic / hematology / blood clotting / blood clotting - activated partial thromboplastin time + systemic / hematology / fibrinogen / …
[12] = systemic / hematology / blood clotting / blood clotting - activated partial thromboplastin time + systemic / in life observation / food …
[13] = systemic / clinical chemistry / cytochrome p450, nos / cytochrome p450, nos + systemic / in life observation / clinical signs / alopecia + …
[14] = systemic / in life observation / clinical signs / salivation + systemic / organ weight / liver / absolute + systemic / pathology microscopic…
[15] = systemic / pathology microscopic / lung / adenoma + systemic / pathology microscopic / lung / carcinoma + systemic / in life observation / …
[16] = group: developmental, developmental / developmental malformation / bone / hypoplasia + developmental / developmental malformation / trunk / spina bifida
[17] = group: maternal, systemic / in life observation / body weight / body weight gain
[18] = systemic / in life observation / body weight / body weight gain + systemic / in life observation / food consumption / food consumption + …
[19] = group: cholinesterase, cholinesterase / cholinesterase / cholinesterase / cholinesterase (che)
[20] = group: systemic, systemic / clinical chemistry / alkaline phosphatase (alp/alk) / alkaline phosphatase (alp/alk) + systemic / in life observation / clinical …

For CC[C@@H]1C[C@H](N(Cc2cc(C(F)(F)F)cc(C(F)(F)F)c2)C(C)=O)c2cc(C(F)(F)F)ccc2N1C(=O)OC(C)C, which LOAEL (rat [1]; [9]) is on record?
Its LOAEL is over 700 mg/kg/day.

What about the NOAEL (rat [1]; [9]) of the same compound?
Its NOAEL is at least 700 mg/kg/day.

And the LEL (rat [1]; [10])?
Its LEL is 10 mg/kg/day.

What about the NEL (rat [1]; [10]) of the same compound?
Its NEL is under 10 mg/kg/day.

And the LOAEL (primate [2]; [11])?
Its LOAEL is over 140 mg/kg/day.

And the NOAEL (primate [2]; [11])?
Its NOAEL is at least 140 mg/kg/day.

And the LEL (primate [2]; [12])?
The LEL was 10 mg/kg/day.

And the NEL (primate [2]; [12])?
Its NEL is under 10 mg/kg/day.

And the LOAEL (rat [3]; [13])?
Its LOAEL is over 125 mg/kg/day.

What about the NOAEL (rat [3]; [13]) of the same compound?
The NOAEL was at least 125 mg/kg/day.

What about the LEL (rat [3]; [14]) of the same compound?
The LEL was 2 mg/kg/day.

What about the NEL (rat [3]; [14]) of the same compound?
Its NEL is under 2 mg/kg/day.

What about the LEL (primate [4]) of the same compound?
The LEL was 10 mg/kg/day.

What about the LOAEL (primate [4]) of the same compound?
The LOAEL was over 140 mg/kg/day.

And the NEL (primate [4])?
The NEL was under 10 mg/kg/day.

And the NOAEL (primate [4])?
The NOAEL was at least 140 mg/kg/day.

CCOC(=O)NCCOc1ccc(Oc2ccccc2)cc1 [Fenoxycarb] was tested. Which LEL (mouse; systemic / pathology gross / spleen / enlarged) did it give?
Its LEL is 5.75 mg/kg/day.

And the NEL (mouse; systemic / pathology gross / spleen / enlarged + systemic / pathology microscopic / liver / carcinoma + systemic / pathology microscopic / …)?
The NEL was 1.1 mg/kg/day.

What about the LOAEL (mouse; [15]) of the same compound?
The LOAEL was 51.5 mg/kg/day.

What about the NOAEL (mouse; [15]) of the same compound?
The NOAEL was 5.33 mg/kg/day.

What about the LEL (dog [5]) of the same compound?
Its LEL is 500 mg/kg/day.

What about the LOAEL (dog [5]) of the same compound?
Its LOAEL is 500 mg/kg/day.

What about the NEL (dog [5]) of the same compound?
The NEL was 150 mg/kg/day.

What about the NOAEL (dog [5]) of the same compound?
Its NOAEL is 150 mg/kg/day.

What about the LEL (rat [6]) of the same compound?
The LEL was 24.7 mg/kg/day.

And the LOAEL (rat [6])?
The LOAEL was 24.7 mg/kg/day.

And the NEL (rat [6])?
The NEL was 8.1 mg/kg/day.

What about the NOAEL (rat [6]) of the same compound?
The NOAEL was 8.1 mg/kg/day.

What about the LEL (rabbit; [16]) of the same compound?
The LEL was 300 mg/kg/day.

What about the LOAEL (rabbit; [16]) of the same compound?
Its LOAEL is 300 mg/kg/day.

And the NEL (rabbit; [16])?
Its NEL is 200 mg/kg/day.

And the NOAEL (rabbit; [16])?
The NOAEL was 200 mg/kg/day.

And the LEL (rabbit; [17])?
The LEL was 200 mg/kg/day.

What about the LOAEL (rabbit; [17]) of the same compound?
Its LOAEL is 200 mg/kg/day.

And the NEL (rabbit; [17])?
The NEL was 100 mg/kg/day.

What about the NOAEL (rabbit; [17]) of the same compound?
The NOAEL was 100 mg/kg/day.

What about the LEL (dog [7]; systemic / clinical chemistry / phosphorus / phosphorus) of the same compound?
Its LEL is 80 mg/kg/day.

What about the NOAEL (dog [7]; systemic / in life observation / body weight / body weight gain + systemic / clinical chemistry / phosphorus / phosphorus + systemic / organ…) of the same compound?
The NOAEL was 80 mg/kg/day.

What about the LOAEL (dog [7]; [18]) of the same compound?
The LOAEL was 260 mg/kg/day.

And the NEL (dog [7]; [18])?
Its NEL is 25 mg/kg/day.

And the LEL (rat [8]; [19])?
Its LEL is 250 mg/kg/day.

And the LOAEL (rat [8]; [19])?
Its LOAEL is over 800 mg/kg/day.

What about the NEL (rat [8]; [19]) of the same compound?
Its NEL is 80 mg/kg/day.

What about the NOAEL (rat [8]; [19]) of the same compound?
The NOAEL was at least 800 mg/kg/day.

What about the LEL (rat [8]; [20]) of the same compound?
The LEL was 80 mg/kg/day.

What about the LOAEL (rat [8]; [20]) of the same compound?
Its LOAEL is 80 mg/kg/day.

What about the NEL (rat [8]; [20]) of the same compound?
Its NEL is under 80 mg/kg/day.

What about the NOAEL (rat [8]; [20]) of the same compound?
Its NOAEL is under 80 mg/kg/day.
